The values below come from BindingDB's records for patent US11780845 (Relay Therapeutics, 2023).

In general, IC50 refers to the point on the concentration scale where inhibition reaches its midpoint. Read a low IC50 as inhibition by little substance.

The experiment deals with Fibroblast growth factor receptor 2 (Homo sapiens, UniProt P21802). Put plainly: FGFR2 Biochemical Caliper Assay. Here is the method: Compounds of the present invention were also tested in a FGFR2 Biochemical Caliper Assay. Compounds were prepared in 10 mM DMSO solution and serially diluted into 11 concentrations by 3-fold dilution. […] 5 uL of ATP solution (100 uM) was added to start the reaction and the plate was incubated for 90 minutes, then 70 uL of stopping buffer (0.5M EDTA) was added to terminate the reaction. Each well was analyzed using EZ reader.

The structures appear in SMILES notation.

Chain of Fibroblast growth factor receptor 2 (P21802 whole entry): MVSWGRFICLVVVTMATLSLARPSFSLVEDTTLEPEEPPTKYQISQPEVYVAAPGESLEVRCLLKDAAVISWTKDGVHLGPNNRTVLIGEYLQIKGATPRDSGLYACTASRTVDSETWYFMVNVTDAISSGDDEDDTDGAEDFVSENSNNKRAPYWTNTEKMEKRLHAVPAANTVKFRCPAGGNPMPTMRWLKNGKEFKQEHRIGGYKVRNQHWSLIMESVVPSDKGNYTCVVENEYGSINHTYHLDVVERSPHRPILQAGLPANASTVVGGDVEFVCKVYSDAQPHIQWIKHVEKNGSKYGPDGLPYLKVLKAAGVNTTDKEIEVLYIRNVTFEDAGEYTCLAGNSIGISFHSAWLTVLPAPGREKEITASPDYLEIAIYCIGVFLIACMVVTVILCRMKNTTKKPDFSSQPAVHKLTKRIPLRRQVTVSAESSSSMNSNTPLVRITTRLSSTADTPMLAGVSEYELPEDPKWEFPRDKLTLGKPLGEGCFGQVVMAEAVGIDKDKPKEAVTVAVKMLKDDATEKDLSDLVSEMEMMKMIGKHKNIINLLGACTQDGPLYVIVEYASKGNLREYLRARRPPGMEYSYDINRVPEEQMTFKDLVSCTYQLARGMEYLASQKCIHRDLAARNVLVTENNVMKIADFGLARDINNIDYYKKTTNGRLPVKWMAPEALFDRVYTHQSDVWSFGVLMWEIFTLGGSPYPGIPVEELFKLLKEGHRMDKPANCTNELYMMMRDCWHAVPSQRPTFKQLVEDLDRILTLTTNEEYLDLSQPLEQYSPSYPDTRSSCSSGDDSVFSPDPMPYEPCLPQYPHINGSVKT

`CC#CC(=O)Nc1ccc(-c2c(-c3ccc(Oc4cccc(C)n4)c(OC)c3)c3c(N)ncnc3n2C)cc1` came in with an IC50 of less than 100 nM.

On to `C=CC(=O)Nc1ccc(-c2c(-c3ccc(Oc4ccccc4)c(OC)c3)c3c(N)ncnc3n2C)cc1` [US11780845, Example 12], for which the half-inhibitory concentration (IC50) is less than 100 nM.

In turn, `CC#CC(=O)N(C)c1ccc(-c2c(-c3ccc(Oc4cccc(C)n4)c(OC)c3)c3c(N)ncnc3n2C)cc1` [US11780845, Example 26] displayed an IC50 of less than 100 nM.

Regarding `C=CC(=O)Nc1ccc(-c2c(-c3ccc(Oc4cccc(C)c4)c(OC)c3)c3c(N)ncnc3n2C)cc1` [US11780845, Example 27], the IC50 was less than 100 nM.
